Assay results from patent publication US20190255073A1, “ESTERS OF 3-POLYAMINE DERIVATIVES OF BILE ACIDS FOR THE TREATMENT OF INFECTIONS” (VIRBAC, priority 2016, published 2019).
≈ marks a conversion by molar mass, not a printed value.

How the values were obtained:
S. aureus ATCC25923 = test: MIC determination by microplate dilution, S. aureus human strain; format: cell-based, Staphylococcus aureus; conditions: Staphylococcus aureus, ATCC25923, Gram-positive, Mueller-Hinton medium, 24 h, 37° C.
Protocol: (§1) 1) Preparation of the Preculture
(§2) A negative control (2 mL of sterile culture medium)
(§3) A positive control (1940 μL of culture medium+40 μL of DMSO+20 μL of bacterial suspension) from a thawed biological strain (the biological strains are stored at −80° C. in glycerol).
(§4) The tubes were incubated at 37° C. for 24 hours at 100 rpm.
(§5) The microorganisms were handled under a type L2 laboratory fume cupboard and, before any handling, a UV cycle was programmed and only sterile material was used. […] The chemical compounds to be tested were prepared in a DMSO/methanol mixture (50/50) at a concentration of 5 mg/mL.
(§6) 2) Preparation of the Microplate for the Determination of the Minimum Inhibitory Concentration (MIC)
(§7) After 24 hours of incubation, a measurement of the optical density was taken using a spectrophotometer at 600 nm, collecting 100 μL of the bacterial suspension diluted in 900 μL of the sterile culture medium. This test required the use of a 96-well plate and the required volume of the microbial suspension to be seeded was calculated for an OD corresponding to a value equal to 0.01 in each well. In this plate, the first line corresponded to the negative control (195 μL of sterile culture medium in each well), the second line to the positive control (seeded culture medium supplemented with 2% of DMSO), the third line was loaded twice with bacterial suspension, 8 μL of test product were placed in each well. Thereafter, a 0.5 cascade dilution was performed from this line.
(§8) The first column served as inhibition control. A sterile filter was then placed on the microplate, allowing the passage of gases but not of contaminants. The microplate was incubated at 37° C. under a humid atmosphere for 24 hours.
(§9) NB: The medium used is Mueller-Hinton (MH) medium for bacteria. All the tests were performed in duplicate.
(§10) 4) Reading of the Results
(§11) After incubation, the filter was replaced with a transparent film, and an OD reading was then taken in an iEMS plate spectrophotometer at 620 nm. Calculation of the minimum inhibitory concentration (MIC) was performed.

S. aureus (340) = test: MIC determination by microplate dilution, S. aureus animal strain; format: cell-based, Staphylococcus aureus; conditions: Staphylococcus aureus, Gram-positive, Mueller-Hinton medium, 24 h, 37° C.
Protocol: as §1, §2, §3, §4, §5, §6, §7, §8, §9, §10, §11

S. intermedius (1051997) = test: MIC determination by microplate dilution, S. intermedius animal strain; format: cell-based, Staphylococcus intermedius; conditions: Staphylococcus intermedius, Gram-positive, Mueller-Hinton medium, 24 h, 37° C.
Protocol: as §1, §2, §3, §4, §5, §6, §7, §8, §9, §10, §11

E. faecalis ATCC29212 = test: MIC determination by microplate dilution, E. faecalis human strain; format: cell-based, Enterococcus faecalis; conditions: Enterococcus faecalis, ATCC29212, Gram-positive, Mueller-Hinton medium, 24 h, 37° C.
Protocol: as §1, §2, §3, §4, §5, §6, §7, §8, §9, §10, §11

E. coli ATCC28922 = test: MIC determination by microplate dilution, E. coli human strain; format: cell-based, Escherichia coli; conditions: Escherichia coli, ATCC28922, Gram-negative, Mueller-Hinton medium, 24 h, 37° C.
Protocol: as §1, §2, §3, §4, §5, §6, §7, §8, §9, §10, §11

E. coli (1956) = test: MIC determination by microplate dilution, E. coli animal strain; format: cell-based, Escherichia coli; conditions: Escherichia coli, Gram-negative, Mueller-Hinton medium, 24 h, 37° C.
Protocol: as §1, §2, §3, §4, §5, §6, §7, §8, §9, §10, §11

P. aeruginosa ATCC27853 = test: MIC determination by microplate dilution, P. aeruginosa human strain; format: cell-based, Pseudomonas aeruginosa; conditions: Pseudomonas aeruginosa, ATCC27853, Gram-negative, Mueller-Hinton medium, 24 h, 37° C.
Protocol: as §1, §2, §3, §4, §5, §6, §7, §8, §9, §10, §11

P. aeruginosa (1051575) [1] = test: MIC determination by microplate dilution, P. aeruginosa animal strain; format: cell-based, Pseudomonas aeruginosa; conditions: Pseudomonas aeruginosa, Gram-negative, Mueller-Hinton medium, 24 h, 37° C.
Protocol: as §1, §2, §3, §4, §5, §6, §7, §8, §9, §10, §11

CHO-K1 cells = test: WST1 cytotoxicity test on CHO-K1 cells; format: cell-based, Chinese hamster; conditions: Cricetulus griseus, CHO-K1, 24 h, read-out: IC50 (μg/mL) CHO
Protocol: Test WST1 was used to measure the cytotoxic activity of the products. This is a colorimetric test which makes it possible to measure the viability and the degree of cell proliferation. It is based on cleavage of the colorless tetrazolium salts WST-1 (4-[3-(4-iodophenyl)-2-(4-nitrophenyl)-2H-5-tetrazolio]-1,3-benzene disulfonate) with mitochondrial dehydrogenases to the yellow-colored formazan derivative, which may be quantified by spectrophotometry at 420-480 nm.
The WST1 test was performed on Chinese hamster ovary cells. The CHO-K1 cells (ATCC, USA) are kept in culture on McCoy's 5A medium supplemented with 10% fetal calf serum, 2 mM of L-glutamine and a mixture of penicillin-streptomycin (100 U/ml: 10 μg/mL). The culture is incubated at 37° C. under an atmosphere enriched in CO2 (5%), and subcultured every two days.
The cells are transferred into 96-well plates (25 000 cells/mL) in whole McCoy's 5A medium, and maintained for 24 hours at 37° C. under a humid atmosphere enriched in CO2 (5%). Increasing concentrations of test products are added to the wells in double tests and 8 growth controls containing the cells in the medium alone are included in each series of tests. After 24 hours at 37° C. (5% CO2), the culture medium is removed, the cells are rinsed in phosphate buffer (PBS) and 50 μL of PBS containing 10% of reagent WST1 are added to each well. After 20 minutes of incubation at 37° C., the results are read by spectrophotometry at 450 nm.
The results are expressed in dose-response relationships, modeled by nonlinear regression analysis using the TableCurve software. The 50% inhibitory concentration (IC50) represents the concentration of product that is capable of reducing the cell viability by 50%.

P. aeruginosa (1051575) [2] = test: Potentiation of the doxycycline activity at 2 μg/mL; format: cell-based, Pseudomonas aeruginosa; conditions: in combination with doxycycline 2 μg/mL; 24 h, 37°

SMILES	MIC (S. aureus ATCC25923) [µg/mL]	MIC (S. aureus (340)) [µg/mL]	MIC (S. intermedius (1051997)) [µg/mL]	MIC (E. faecalis ATCC29212) [µg/mL]	MIC (E. coli ATCC28922) [µg/mL]	MIC (E. coli (1956)) [µg/mL]	MIC (P. aeruginosa ATCC27853) [µg/mL]	MIC (P. aeruginosa (1051575) [1]) [µg/mL]	IC50 (CHO-K1 cells) [µg/mL]	MIC - P. aeruginosa (1051575): content of compound of formula (I) to restore the doxycycline activity (at 2 μg/mL) (P. aeruginosa (1051575) [2]) [µg/mL]
COC(=O)CC[C@@H](C)[C@H]1CCC2C3C(CC[C@@]21C)[C@@]1(C)CC[C@H](NCCCNCCCN)CC1C[C@H]3O (stereo partly drawn) [(9), methyl 3β-norspermidinochenodeoxycholate]	13 (≈ 25 µM)	7 (≈ 13.5 µM)	7 (≈ 13.5 µM)	26 (≈ 50 µM)	26 (≈ 50 µM)	26 (≈ 50 µM)	26 (≈ 50 µM)	26 (≈ 50 µM)	70 (≈ 135 µM)	3
CC(C)OC(=O)CC[C@@H](C)[C@H]1CCC2C3C(CC[C@@]21C)[C@@]1(C)CC[C@H](NCCNCCNCCNCCNCCN)CC1C[C@H]3O (stereo partly drawn) [(23), isopropyl 3β-(pentaethylenehexamine)chenodeoxycholate]	16 (≈ 24.7 µM)	16 (≈ 24.7 µM)	8 (≈ 12.3 µM)	16 (≈ 24.7 µM)	16 (≈ 24.7 µM)	32 (≈ 49.3 µM)	64 (≈ 98.6 µM)	64 (≈ 98.6 µM)	–	8
COC(=O)CC[C@@H](C)[C@H]1CCC2C3CCC4C[C@@H](NCCCNCCCN)CC[C@]4(C)C3C[C@H](O)[C@@]21C (stereo partly drawn) [(4), methyl 3β-norspermidinodeoxycholate]	2 (≈ 3.85 µM)	3 (≈ 5.77 µM)	1 (≈ 1.92 µM)	3 (≈ 5.77 µM)	3 (≈ 5.77 µM)	–	3 (≈ 5.77 µM)	3 (≈ 5.77 µM)	20 (≈ 38.5 µM)	3
CC(C)OC(=O)CC[C@@H](C)[C@H]1CCC2C3CCC4C[C@@H](NCCCN(C)CCCN)CC[C@]4(C)C3C[C@H](O)[C@@]21C (stereo partly drawn) [(30), isopropyl 3β-(bis(3-aminopropyl)methylamine)deoxycholate]	28 (≈ 49.8 µM)	28 (≈ 49.8 µM)	14 (≈ 24.9 µM)	56 (≈ 99.7 µM)	28 (≈ 49.8 µM)	56 (≈ 99.7 µM)	56 (≈ 99.7 µM)	56 (≈ 99.7 µM)	–	7
